Common to all, as to assay: FLIPR calcium imaging in transfected HEK293 PEAKrapid Gα[…]i/o44 cells, dose-response with mock control
Common to all, as to format: cell-based

In one assay the target is T1, TAS2R20 (Homo sapiens, UniProt P59543).
T1 construct: TAS2R cDNA cloned 3′ of the first 45 amino acids of the rat somatostatin receptor 3
T1 sequence (P59543 1-309): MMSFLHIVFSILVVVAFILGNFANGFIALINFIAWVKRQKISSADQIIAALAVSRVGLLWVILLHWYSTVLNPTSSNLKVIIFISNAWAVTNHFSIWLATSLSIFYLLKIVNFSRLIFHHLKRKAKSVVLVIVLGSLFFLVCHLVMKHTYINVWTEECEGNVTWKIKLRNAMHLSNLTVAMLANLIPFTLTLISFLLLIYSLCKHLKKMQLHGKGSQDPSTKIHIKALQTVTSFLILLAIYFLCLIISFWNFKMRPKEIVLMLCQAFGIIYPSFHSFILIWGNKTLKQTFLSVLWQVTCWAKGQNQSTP

For another assay, the target named is T2, TAS2R39 (Homo sapiens, UniProt P59534).
T2 construct: TAS2R cDNA cloned 3′ of the first 45 amino acids of the rat somatostatin receptor 3
T2 sequence (P59534 1-338): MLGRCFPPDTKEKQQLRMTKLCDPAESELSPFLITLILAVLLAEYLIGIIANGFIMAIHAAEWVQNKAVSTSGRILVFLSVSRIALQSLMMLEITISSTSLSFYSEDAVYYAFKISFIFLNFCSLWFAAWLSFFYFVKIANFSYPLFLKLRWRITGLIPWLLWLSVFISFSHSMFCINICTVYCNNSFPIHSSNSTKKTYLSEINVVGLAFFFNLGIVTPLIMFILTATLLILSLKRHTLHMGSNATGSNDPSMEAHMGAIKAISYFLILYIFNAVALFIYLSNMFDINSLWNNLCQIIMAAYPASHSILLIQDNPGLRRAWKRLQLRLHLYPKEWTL

A further assay deals with T3, TAS2R14 (Homo sapiens, UniProt Q9NYV8).
T3 construct: TAS2R cDNA cloned 3′ of the first 45 amino acids of the rat somatostatin receptor 3
T3 sequence (Q9NYV8 1-317): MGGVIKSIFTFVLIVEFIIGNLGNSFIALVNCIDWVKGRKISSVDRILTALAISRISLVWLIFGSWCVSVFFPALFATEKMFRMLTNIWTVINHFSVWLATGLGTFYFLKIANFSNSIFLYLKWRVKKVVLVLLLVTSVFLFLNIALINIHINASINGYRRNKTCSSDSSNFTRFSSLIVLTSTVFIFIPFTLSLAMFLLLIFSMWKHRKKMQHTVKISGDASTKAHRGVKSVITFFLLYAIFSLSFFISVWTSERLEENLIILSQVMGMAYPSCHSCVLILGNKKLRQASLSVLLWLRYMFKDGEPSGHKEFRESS

One may read the EC50 as the concentration at which the effect is half-maximal. For `COc1cc(C=O)ccc1O` [vanillin, 4-hydroxy-3-methoxybenzaldehyde], the EC50 is 530 ± 90 µM on TAS2R20, 870 ± 190 µM on TAS2R39 and 570 ± 110 µM on TAS2R14.

Source of the values: article PMC8298857, “Vanillin Activates Human Bitter Taste Receptors TAS2R14, TAS2R20, and TAS2R39” (Frontiers in Nutrition, 2021).
